From patent US10159249B2 (BAYER CROPSCIENCE AKTIENGESELLSCHAFT, priority 2013, dated 2018)
Marks after values point to notes of the source that are not given here.

Key:
[1] = biological target: PfHPPD-Evo40 (SEQ ID No 27) (Pseudomonas sp., UniProt P80064, A172V/A339E/A53E/D148E/D45N/E105D/E287Q/E300V/E334P/F143Y/G286D/G335S/H150N/H254A/H63N/I158V/I187A/I249V/K92N/L18F/N24G/N280D/S245T/S257K/S301E/T205S/V65I); test: biochemical; set-up: species or system Pseudomonas fluorescens
[2] = system: Control maize plants (EPSPS selectable marker gene, no HPPD variant); test: Greenhouse trial, maize T0 plants, leaf area damage; format: in vivo; details: for number of events, herbicide tolerance class 0 (41%-100% damaged leaf area) / number of events, herbicide tolerance class 1 (16%-40% damaged leaf area) / number of events, herbicide tolerance class 2 (6%-15% damaged leaf area) / number of events, herbicide tolerance class 3 (0%-5% damaged leaf area): maize Control
Description: (§1) Regenerated T0 events from tissue culture were transplanted into two inch square pots with synthetic soil (Fafard® Mix) and controlled-released fertilizer (Haifa Multicote™; polymer-coated controlled-release fertilizer, NPK Pro 18-6-12+Micronutrients) and cultivated in the greenhouse (GH) under supplementary high pressure sodium light for 12 days at a maximum of 30° C. during the day and a minimum of 22° C. at night. Fully recovered plants were transferred into five inch square pots filled with synthetic soil and control released fertilizer under the same environmental conditions. […] All herbicide treatments were conducted in a DeVries Tracker Sprayer system with standard application protocols, which are well known in the art. As a spray control T0 events have been sprayed with the adjunvant mixture lacking the herbicide.
(§2) A rating of “1” was assigned to plants having a moderate tolerance with 16% to 40% damage of total leaf area. A rating of “2” was assigned to plants with good tolerance within the range of 6% to 15% damage of total leaf area.

[3] = system: maize transgenic T0 events expressing Axmi428H-Evo41; test: as above; format: in vivo; details: for number of events, herbicide tolerance class 0 (41%-100% damaged leaf area) / number of events, herbicide tolerance class 1 (16%-40% damaged leaf area) / number of events, herbicide tolerance class 2 (6%-15% damaged leaf area) / number of events, herbicide tolerance class 3 (0%-5% damaged leaf area): maize Axmi428H-Evo41, six days after application
Description: as §1
(§3) Table 2 summarizes results of transgenic maize plants expressing mutants of the Pseudomonas fluorescens HPPD protein comprising an E (Glu)->P (Pro) replacement at position 335, a G (Gly)->W (Trp) replacement at position 336, a K (Lys)->A (Ala) replacement at position 339 and an A (Ala)->Q (Gln) replacement at position 340 (named PfHPPDEvo41 and being disclosed under SEQ ID No:16 in PCT/US2013/59598 (WO2014/043435) and being disclosed in present application under SEQ ID No. 29), or a mutated sequence of the Pseudomonas (=Comamonas) testosteroni HPPD protein comprising a E (Glu)->P (Pro) replacement at position 351, a G (Gly)->W (Trp) replacement at position 352, a K (Lys)->A (Ala) replacement at position 355 and an A (Ala)->Q (Gln) replacement at position 356 (named Axmi428H-Evo41 and being disclosed under SEQ ID No 56 in PCT/US2013/59598 (WO2014/043435) and being disclosed in present application as the HPPD protein sequence under SEQ ID No 33) or a mutated sequence of the Pseudomonas agarici HPPD protein comprising a E (Glu)->P (Pro) replacement at position 335, a G (Gly)->W (Trp) replacement at position 336, a K (Lys)->A (Ala) replacement at position 339 and an A (Ala)->Q (Gln) replacement at position 340 (named Axmi309H-EVO41 and being disclosed under SEQ ID No 54 in PCT/US2013/59598 (WO2014/043435) and being disclosed in present application as the HPPD protein sequence under SEQ ID No 37).
as §2

[4] = system: maize transgenic T0 events expressing PfHPPDEvo41; test: as above; format: in vivo; details: for number of events, herbicide tolerance class 0 (41%-100% damaged leaf area) / number of events, herbicide tolerance class 1 (16%-40% damaged leaf area) / number of events, herbicide tolerance class 2 (6%-15% damaged leaf area) / number of events, herbicide tolerance class 3 (0%-5% damaged leaf area): maize PfHPPDEvo41, six days after application
Description: as §1, §3, §2

[5] = system: maize transgenic T0 events expressing Axmi309H-Evo41; format: in vivo; details: 100 g AI/ha, six days after application
Description: as §1, with “art.” for “art. As a spray control T0 events have been sprayed with the adjunvant mixture lacking the herbicide.”
as §2

Digitaria horizontalis = test: Field trial, weed efficacy, post applied; format: in vivo; details: (A) 50 g ai/ha; application at 2 tillers; assessment 14 days after application
Amaranthus retroflexus = details: (A) 50 g ai/ha; application at 6 leaf stage; assessment 14 days after application
[6] = 25 g AI/ha, evaluation 9 days after treatment
[7] = 50 g AI/ha, six days after application
[8] = 100 g AI/ha, six days after application

PfHPPD-Evo40 (SEQ ID No 27), sequence (P80064 1-354 with tags or gaps with the stated changes limits assumed): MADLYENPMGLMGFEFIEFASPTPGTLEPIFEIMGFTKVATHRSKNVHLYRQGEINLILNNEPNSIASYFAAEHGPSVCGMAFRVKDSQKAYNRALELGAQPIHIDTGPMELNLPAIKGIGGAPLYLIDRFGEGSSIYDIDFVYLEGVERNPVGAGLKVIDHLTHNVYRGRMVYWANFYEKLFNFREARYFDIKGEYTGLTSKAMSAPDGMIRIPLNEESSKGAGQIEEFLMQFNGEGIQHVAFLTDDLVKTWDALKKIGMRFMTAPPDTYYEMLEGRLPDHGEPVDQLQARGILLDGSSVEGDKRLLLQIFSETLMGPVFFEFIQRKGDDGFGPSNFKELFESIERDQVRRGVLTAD

## CSc1c(C(F)(F)F)ccc(C(=O)Nc2nnnn2C)c1Cl
[1]
  IC50: 251 nM
[1]; 0.2 μM inhibitor, HGD assay
  % inhibition at 0.2 μM: 40%
[2]; all control events, 25 g of AI/ha
  bleaching symptoms: severe bleaching symptoms
[2]; control maize T0 events without HPPD variant, 25 g AI/ha
  leaf damage: 100%
[2]; [6]
  number of events, herbicide tolerance class 0 (41%-100% damaged leaf area): 5*
  number of events, herbicide tolerance class 1 (16%-40% damaged leaf area): 0
  number of events, herbicide tolerance class 2 (6%-15% damaged leaf area): 0
  number of events, herbicide tolerance class 3 (0%-5% damaged leaf area): 0
[2]; [7]
  number of events, herbicide tolerance class 0 (41%-100% damaged leaf area): 4
  number of events, herbicide tolerance class 1 (16%-40% damaged leaf area): 0
  number of events, herbicide tolerance class 2 (6%-15% damaged leaf area): 0
  number of events, herbicide tolerance class 3 (0%-5% damaged leaf area): 0
[2]; [8]
  number of events, herbicide tolerance class 0 (41%-100% damaged leaf area): 50
  number of events, herbicide tolerance class 1 (16%-40% damaged leaf area): 0
  number of events, herbicide tolerance class 2 (6%-15% damaged leaf area): 0
  number of events, herbicide tolerance class 3 (0%-5% damaged leaf area): 0
[3]; maize Axmi428H-Evo41 (n=29), 100 g AI/ha
  share of tested events with high tolerance (5% or less bleached leaf area): ~70%
[3]; 50 g AI/ha
  number of events, herbicide tolerance class 0 (41%-100% damaged leaf area): 0
  number of events, herbicide tolerance class 1 (16%-40% damaged leaf area): 0
  number of events, herbicide tolerance class 2 (6%-15% damaged leaf area): 0
  number of events, herbicide tolerance class 3 (0%-5% damaged leaf area): 7
[3]; 100 g AI/ha
  number of events, herbicide tolerance class 0 (41%-100% damaged leaf area): 3
  number of events, herbicide tolerance class 1 (16%-40% damaged leaf area): 4
  number of events, herbicide tolerance class 2 (6%-15% damaged leaf area): 1
  number of events, herbicide tolerance class 3 (0%-5% damaged leaf area): 21
[4]; maize PfHPPDEvo41 (n=21), 100 g AI/ha
  share of tested events with high tolerance (5% or less bleached leaf area): ~70%
[4]; 25 g AI/ha
  number of events, herbicide tolerance class 0 (41%-100% damaged leaf area): 6
  number of events, herbicide tolerance class 1 (16%-40% damaged leaf area): 0
  number of events, herbicide tolerance class 2 (6%-15% damaged leaf area): 1
  number of events, herbicide tolerance class 3 (0%-5% damaged leaf area): 28
[4]; 50 g AI/ha
  number of events, herbicide tolerance class 0 (41%-100% damaged leaf area): 1
  number of events, herbicide tolerance class 1 (16%-40% damaged leaf area): 0
  number of events, herbicide tolerance class 2 (6%-15% damaged leaf area): 2
  number of events, herbicide tolerance class 3 (0%-5% damaged leaf area): 28
[4]; 100 g AI/ha
  number of events, herbicide tolerance class 0 (41%-100% damaged leaf area): 4
  number of events, herbicide tolerance class 1 (16%-40% damaged leaf area): 0
  number of events, herbicide tolerance class 2 (6%-15% damaged leaf area): 2
  number of events, herbicide tolerance class 3 (0%-5% damaged leaf area): 15
[5]
  number of events, herbicide tolerance class 0 (41%-100% damaged leaf area): 5
  number of events, herbicide tolerance class 1 (16%-40% damaged leaf area): 9
  number of events, herbicide tolerance class 2 (6%-15% damaged leaf area): 16
  number of events, herbicide tolerance class 3 (0%-5% damaged leaf area): 6
Digitaria horizontalis
  Efficacy (%) Digitaria horizontalis: 70%
Amaranthus retroflexus
  Efficacy (%) Amaranthus retroflexus: 65%
